Data published in US20230145868A1, “UREA INHIBITORS OF MICRO-RNA” (Board of Regents, The University of Texas System, priority 2020, published 2023).

Experiments:
miR-10b [1] = assay: Luciferase reporter assay of miR-10b inhibition, MDA-MB-231 cells; assay type: cell-based; settings: Homo sapiens, MDA-MB-231, 48 h
Description: (§1) To identify miR-10b inhibitors, a luciferase reporter system was designed with complementary oligonucleotides for miR-10b.This luciferase reporter would repress Renilla luciferase signal in the presence of a functional mature miR-10b. However, in the presence of a small molecule that can inhibit mature miR-10b expression or affect its downstream function, the luciferase expression is restored again.
(§2) The PsiCHECK™-2 luciferase reporter vector was acquired from Promega™, Complementary oligonucleotides for hsa-miR-10b were designed based on the mature miRNA sequence and obtained from Thermo Fisher Scientific. In the design of the microRNA target sequence, several base pairs were added to have two different restriction sites recognizable by the enzyme SgfI at one side, and PmeI on the other (present in the vector as well). In addition, the insert was designed with a restriction site for SacI enzyme in order to have an additional site to digest the vector when monitoring colonies for the presence/absence of the insert. The designed oligonucleotides were annealed as follows: Complementary strands were mixed at a 1:1 molar ratio in a micro centrifuge tube. The mixture was diluted to a final concentration of 1 pmol/μl with a buffer solution of 10 mM Tris, 1 mM EDTA, and 50 mM NaCl (pH 8.0). Mixes were incubated at 95° C. for 5 min, and then the heat was reduced gradually for 70 min, until reaching 4° C. The annealed oligonucleotides were digested along with the PsiCHECK™2 vector with SgfI and PmeI and ligated at the 3′-UTR (downstream) of the Renilla luciferase reporter gene in the PsiCHECK™-2vector. Insert sequences were further confirmed in two ways: enzymatic digestion and sequencing.
(§3) MCF7 cells were seeded 24 h prior to transfection in 96 well plates (2.0×10^4 cells/well). For testing the sensitivity of the assay, antagomiRs and pre-miRs against miR-10b were used at a final concentration of 100 nM. For testing small molecule miRNA inhibitors, the compounds of interest were added to a final concentration of 10 μM. The assay was done in MCF7 or MDA-MB-231 cells at approximately 60% confluence using Lipofectamine in Opti-Mem media with the final vector concentration of 250 ng/mL. All transfections were performed in triplicate for statistical analysis. The cells were incubated at 37° C. for 6 h, followed by replacement of the transfected media with fresh media. After 48 h incubation, the media was removed, and cells were lysed and assayed with a Dual Luciferase Assay Kit (Promega) using a Vi-Tech luminometer. The ratio of Renilla to firefly luciferase expression was calculated for each of the triplicates.

miR-10b [2] = assay: Luciferase reporter assay of miR-10b inhibition, MCF7 cells; assay type: cell-based; settings: Homo sapiens, MCF7, 48 h
Description: as §1, §2, §3

[3] = Table 5, MDA-MB-231, 10 μM compound, vs negative control (DMSO), mean of triplicate, read-out: n-fold increase in luciferase expression, Mean
[4] = Table 5, MDA-MB-231, 10 μM compound, vs negative control (DMSO), replicate #1, read-out: n-fold increase in luciferase expression, #1
[5] = Table 5, MDA-MB-231, 10 μM compound, vs negative control (DMSO), replicate #2, read-out: n-fold increase in luciferase expression, #2
[6] = Table 5, MDA-MB-231, 10 μM compound, vs negative control (DMSO), replicate #3, read-out: n-fold increase in luciferase expression, #3
[7] = Table 7, MDA-MB-231, second biological replicant, 10 μM compound, mean of triplicate, read-out: n-fold increase in luciferase expression, Mean
[8] = Table 7, MDA-MB-231, second biological replicant, 10 μM compound, replicate #1, read-out: n-fold increase in luciferase expression, #1
[9] = Table 7, MDA-MB-231, second biological replicant, 10 μM compound, replicate #2, read-out: n-fold increase in luciferase expression, #2
[10] = Table 7, MDA-MB-231, second biological replicant, 10 μM compound, replicate #3, read-out: n-fold increase in luciferase expression, #3
[11] = Table 6, MCF7, second biological replicant, 10 μM compound, mean of triplicate, read-out: n-fold increase in luciferase expression, Mean
[12] = Table 6, MCF7, second biological replicant, 10 μM compound, replicate #1, read-out: n-fold increase in luciferase expression, #1
[13] = Table 6, MCF7, second biological replicant, 10 μM compound, replicate #2, read-out: n-fold increase in luciferase expression, #2
[14] = Table 6, MCF7, second biological replicant, 10 μM compound, replicate #3, read-out: n-fold increase in luciferase expression, #3
[15] = Table 4, MCF7, 10 μM compound, vs negative control (DMSO), mean of triplicate, read-out: n-fold increase in luciferase expression, Mean
[16] = Table 4, MCF7, 10 μM compound, vs negative control (DMSO), replicate #1, read-out: n-fold increase in luciferase expression, #1
[17] = Table 4, MCF7, 10 μM compound, vs negative control (DMSO), replicate #2, read-out: n-fold increase in luciferase expression, #2
[18] = Table 4, MCF7, 10 μM compound, vs negative control (DMSO), replicate #3, read-out: n-fold increase in luciferase expression, #3

Row | Compound | fold induction at 10 µM (miR-10b [1]; [3]) | fold induction at 10 µM (miR-10b [1]; [4]) | fold induction at 10 µM (miR-10b [1]; [5]) | fold induction at 10 µM (miR-10b [1]; [6]) | fold induction at 10 µM (miR-10b [1]; [7]) | fold induction at 10 µM (miR-10b [1]; [8]) | fold induction at 10 µM (miR-10b [1]; [9]) | fold induction at 10 µM (miR-10b [1]; [10]) | fold induction at 10 µM (miR-10b [2]; Table 3, MCF7, 10 μM compound, vs negative control (DMSO), mean of triplicate, read-out: n-fold increase in luciferase expression, Mean) | fold induction at 10 µM (miR-10b [2]; Table 3, MCF7, 10 μM compound, vs negative control (DMSO), replicate #1, read-out: n-fold increase in luciferase expression, #1) | fold induction at 10 µM (miR-10b [2]; Table 3, MCF7, 10 μM compound, vs negative control (DMSO), replicate #2, read-out: n-fold increase in luciferase expression, #2) | fold induction at 10 µM (miR-10b [2]; Table 3, MCF7, 10 μM compound, vs negative control (DMSO), replicate #3, read-out: n-fold increase in luciferase expression, #3) | fold induction at 10 µM (miR-10b [2]; [11]) | fold induction at 10 µM (miR-10b [2]; [12]) | fold induction at 10 µM (miR-10b [2]; [13]) | fold induction at 10 µM (miR-10b [2]; [14]) | fold induction at 10 µM (miR-10b [2]; [15]) | fold induction at 10 µM (miR-10b [2]; [16]) | fold induction at 10 µM (miR-10b [2]; [17]) | fold induction at 10 µM (miR-10b [2]; [18])
1 | Cc1ccc(F)c(NC(=O)Nc2ccc(-c3cccc4[nH]ncc34)cc2)c1 [Example 3, 1-(4-(1H-indazol-4-yl)phenyl)-3-(2-fluoro-5-methylphenyl)urea] | 0.46 | 0.423 | 0.643 | 0.312 | 0.17 | 0.193 | 0.149 | 0.163 | 0.26 | 0.238 | 0.246 | 0.292 | 0.18 | 0.257 | 0.176 | 0.117 |  |  |  | 
2 | Cc1ccc(F)c(NC(=O)Nc2ccc(-c3cccc4c3NC(=O)C4)cc2)c1 [Example 7, 1-(2-fluoro-5-methylphenyl)-3-(4-(2-oxoindolin-7-yl)phenyl)urea] | 1.05 | 1.01 | 1.09 | 1.05 | 1.19 | 1.16 | 1.31 | 1.11 |  |  |  |  | 1.25 | 1.86 | 0.957 | 0.935 | 2.41 | 1.34 | 5.06 | 0.822
3 | Cc1ccc(F)c(NC(=O)Nc2ccc(-c3ccccn3)cc2)c1 [Example 8, 1-(2-fluoro-5-methylphenyl)-3-(4-(pyridin-2-yl)phenyl)urea] | 0.78 | 0.566 | 0.991 | 0.793 | 1.15 | 1.39 | 1 | 1.05 |  |  |  |  | 1.24 | 1.82 | 1.04 | 0.857 | 3.92 | 4.6 | 6.07 | 1.08
4 | Nc1n[nH]c2cccc(-c3ccc(NC(=O)Nc4ccncc4)cc3)c12 [Example 9, 1-(4-(3-amino-1H-indazol-4-yl)phenyl)-3-(pyridin-4-yl)urea] | 1.41 | 1.14 | 2.05 | 1.05 | 1.56 | 1.39 | 1.61 | 1.67 |  |  |  |  | 1.29 | 2.17 | 0.859 | 0.84 | 2.11 | 0.94 | 4.2 | 1.2
